According to patent US8212010B2, “Sphingosine 1-phosphate antagonism” (Expression Drug Designs, LLC, priority 2008, dated 2012):

Tests used:
[1] = test system: S1P receptor; conditions: with the exception of S1P2; by stable internalization; cited from earlier work
[2] = test system: tumor transplant model; conditions: in vivo; cited from earlier work
[3] = test system: MDA-MB-231 breast cancer cells; assay: S1P-induced cytoskeletal rearrangement / cell rounding; format: cell-based, human
Protocol: MDA-MB-231 breast cancer cells are cultured on collagen-coated coverslips in the presence of 10% FBS using standard techniques. Because S1P is present at high concentrations in serum, BCCs are “serum-starved” in Dulbecco's modified Eagle medium (DMEM) for 12 hours prior to experimental manipulation. S1P is solubilized with bovine serum albumin (BSA) carrier and administered at a final concentration of 1 nM to 1 μM. Coverslips are collected at representative time points such as 10 minutes, 1 hr., 2 hrs., 4 hrs., and 6 hrs., fixed with 4% paraformaldehyde, and stained with rhodamine-conjugated phalloidin to label cytoskeletal actin.
The cell rounding experiment can be performed using an antagonist of S1P that binds to S1P3. […] Serum-starved MDA-MB-231 cells are incubated with preimmune serum or S1P3-reactive antiserum for 15 minutes prior to a 30-minute exposure to 10 nM S1P, then evaluated for response both in % cells responding and average cell area.
MDA-MB-231 cells are grown under standard culture conditions and serum starved for 24 hours prior to experimental manipulation. […] 30 minutes after S1P administration, cells are fixed with 4% paraformaldehyde, stained with rhodamine-conjugated phalloidin, and visualized with fluorescence microscopy. Rounded cells are counted by an experimenter blinded to the identity of the sample. Cell area is determined by quantification with imageJ software.

[4] = test system: MDA-MB-231 cells; assay: Cell motility, modified Boyden's chamber assay; format: cell-based, human; conditions: 1 μM S1P; two hour time point
Protocol: Cell motility is determined using a modified Boyden's chamber assay. MDA-MB-231 cells are introduced into the upper wells of collagen-coated chambers in serum-free DMEM and incubated for 30 minutes before the addition of either 1 μM S1P in BSA or BSA alone. At the indicated times, wells are isolated and fixed with 4% paraformaldehyde before non-migrated cells in the upper well are removed with a cotton swab. Membranes are then stained with DAPI to visualize individual migrated cells on the bottom of the membranes. Results shown are the averages of three independent experiments. Determination of the effect of S1P3 blocking antibodies on the migration of cancer cells can be performed as follows. The effect of S1P3 blocking antibodies is determined using a modified Boyden chamber assay as described above. In this case, an appropriate cell line (such as […]) is seeded into the upper chamber of the transwell and pre-treated with a blocking antibody or control antibody. […] Cells are then fixed and counted as described above. The anti-migratory effect of the blocking antibody is determined by comparing the number of migrated cells in the presence of the antibody to the number of migrated cells in the presence of an appropriate control antibody under the same stimulatory conditions.

[5] = test system: MDA-MB-231 cells; assay: Tamoxifen toxicity, cell viability by phase contrast microscopy; format: cell-based, human
Protocol: The experiment can be performed first without a S1P antagonist. MDA-MB-231 cells are cultured under standard conditions in […] supplemented with 10% fetal bovine serum and glutamate. Cells are grown in the absence of serum for 24 hours prior to experimental manipulation. Tamoxifen (Tam) and S1P are added to the media at the indicated concentrations for the indicated times at the appropriate concentrations (e.g., 3 μM Tam, 10 μM Tam, and 20 μM Tam) for appropriate times (e.g., 6 hrs. and 24 hrs.). Cell viability is observed by direct illumination with an inverted phase contrast microscope.
The tamoxifen toxicity experiment can be performed using an antagonist of S1P that binds to S1P3. For example, the antiserum described in Example 1 can be employed. MDA-MB-231 cells are cultured under standard conditions in Dulbecco's Minimal Essential Media supplemented with 10% fetal bovine serum and glutamate. Serum concentration is reduced to 1% for 24 hours prior to experimental manipulation. Tamoxifen and S1P are added to the media at the appropriate concentrations (e.g., 0 μM Tam, 10 μM Tam, and 20 μM Tam) for appropriate times (e.g., 6 hrs. and 24 hrs.). Cell viability is observed by direct illumination with an inverted phase contrast microscope.

[6] = test system: MCF-7 cells; assay: Cell death by annexin V assay; format: cell-based, human
Protocol: Quantification of cell death can be performed with an annexin V assay. Serum-starved cells can be treated overnight with […] tamoxifen in the presence or absence of 500 nM S1P, then collected by trypsinization, and labeled with Alexafluor 488-conjugated annexin V (Invitrogen Corp, Carlsbad, Calif.) per manufacturer's protocol. Cells can be counted on a FACSAria cell sorting system and analyzed with FACSDiva software (BD Biosciences, San Jose, Calif.). […] This effect is attenuated by co-administration of 500 nM S1P.

In the case of `CCCCCCCCc1ccc(CCC(N)(CO)CO)cc1` [FTY720], the “inhibition of S1P receptors” value [1] is given as “effectively inhibit four of the five known receptors” and the “effect on angiogenesis and tumor growth” value [2] is given as “inhibit angiogenesis and subsequent growth”.
In the case of `CCCCCCCCCCCCC/C=C/[C@@H](O)[C@@H](N)COP(=O)(O)O` [S1P, Sphingosine 1-phosphate], the cell shape change ([3]; 1 nM S1P) is reported as “minor cell shape changes”, the cell shape change ([3]; 10 nM S1P) is reported as “dramatic cell rounding” and the “increase in migrated cells compared to vehicle control” value [4] is reported as “nearly two-fold increase”. The “cell viability under tamoxifen with S1P” value ([5]; serum-free, 6 hours, media supplemented with 1 μM S1P) was “many viable cells remain”, the “cell viability under tamoxifen with S1P” value ([5]; serum-free, 24 hour, addition of S1P) was “markedly improves survival” and the “effect on tamoxifen-induced annexin V binding” value ([6]; co-administration of 500 nM S1P) was “attenuated”.
For `CC/C(=C(\c1ccccc1)c1ccc(OCCN(C)C)cc1)c1ccccc1` [Tamoxifen], the cell viability ([5]; 1% FBS, 6 hours, 10 μM Tam) was “appear normal”, the cell viability ([5]; 1% FBS, 6 hours, 20 μM Tam) was “begin to show evidence of cell death” and the cell viability ([5]; 24 hours, 10 μM Tam, control conditions) was “most cells remain healthy”. The cell viability ([5]; serum-free, 6 hours, 10 μM tamoxifen) was “only a few viable cells remain”, the cell viability ([5]; serum-free, 6 hours, 20 μM tamoxifen) was “all cells are dead/dying” and the cell viability ([5]; serum-free, 24 hour, 3 μM tamoxifen) was “most control cells are lost”. For the same molecule, the cell viability ([5]; serum-free, 24 hour, 10 μM tamoxifen) was “cell death is complete” and the “annexin V binding (apoptotic cell death)” value ([6]; overnight treatment of MCF-7 cells) was “increase in annexin V binding”.
